Among the test systems are 786-0 renal; HCT-15 colon; MOLT-4 leukemia; OVCAR-3 ovarian; SF-295 CNS; U251 CNS; A498 renal; DU-145 prostate; MCF7 breast; NCI/ADR-RES ovarian.
Holding throughout (test): NCI tumour cell line growth inhibition, 48 h

SMILES strings stand for the structures.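 Where inhibition never reached the appropriate level, the endpoint shown equals the highest concentration tested. Otherwise, values were interpolated linearly from a five-concentration, 48-hour dose response in 96-well plates. At the GI50, growth is halved. Definition used: TGI = concentration required for complete inhibition of growth.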 A value given as a limit tells only on which side of the number the result lay.

As for `O=c1c2cc3c(cc2c2cccc4c2n1CCC4)OCO3`, the TGI with 786-0 renal was greater than 100 µM; in the test with HCT-15 colon, greater than 100 µM; with MOLT-4 leukemia it was greater than 100 µM; with OVCAR-3 ovarian it was greater than 100 µM; in the test with SF-295 CNS, greater than 100 µM; with U251 CNS it was 73.5 µM.

With `Cc1c2c(c(C)c3c1[nH]c1ccccc13)CN(C)CC2`, the TGI with 786-0 renal is 29.6 µM; in the test on A498 renal it was 59.4 µM; in the test with HCT-15 colon it was 31 µM; in the test on MOLT-4 leukemia it was greater than 100 µM; with OVCAR-3 ovarian, 52.7 µM; in the test on SF-295 CNS, 31.7 µM. The compound also displayed a TGI in the test on U251 CNS of 26 µM.

`COC(=O)Cc1cc(=O)[nH]c2c1C(=O)CCC2`: the TGI with 786-0 renal, with HCT-15 colon, with MOLT-4 leukemia, with OVCAR-3 ovarian, in the test with SF-295 CNS and in the test on U251 CNS was greater than 100 µM in each case.

Turning to `NC(=O)NC1C(C(=O)O)N(Cc2ccccc2)C(=O)N1Cc1ccccc1` (configuration not stated), the TGI in the test with 786-0 renal is greater than 100 µM; in the test on HCT-15 colon it was greater than 100 µM; in the test on MOLT-4 leukemia, 10.9 µM; in the test on OVCAR-3 ovarian, greater than 100 µM; in the test with SF-295 CNS it was greater than 100 µM; in the test on U251 CNS, greater than 100 µM.

As to `OCCN(CCO)c1cccc(N(CCO)CCO)n1`, the TGI in the test with 786-0 renal, with A498 renal, in the test on HCT-15 colon, with MOLT-4 leukemia, in the test on OVCAR-3 ovarian and with SF-295 CNS was greater than 100 µM throughout. Besides, the TGI in the test with U251 CNS was greater than 100 µM.

Regarding `COc1ccc(C(=O)C#Cc2c[nH]c(=O)[nH]c2=O)cc1`, the TGI was 25 µM in the test with 786-0 renal; 49.9 µM in the test with A498 renal; 20.9 µM with HCT-15 colon; 8.19 µM in the test on MOLT-4 leukemia; 21.6 µM in the test on OVCAR-3 ovarian; 96.2 µM in the test with SF-295 CNS. Moreover, the TGI with U251 CNS was 22.7 µM.

For `CCC1(CN(C)C)CC/C(=C\c2ccc(OC)c(OC)c2)C1=O` (configuration not stated), the TGI in the test with 786-0 renal, in the test on A498 renal, in the test on HCT-15 colon, in the test with MOLT-4 leukemia, in the test on OVCAR-3 ovarian and in the test with SF-295 CNS was greater than 100 µM each time. Also, the TGI in the test with U251 CNS was greater than 100 µM.

In the case of `CC(C)(C)OC(=O)NCc1cccc(N=C=S)c1`, the GI50 was 21.6 µM in the test with 786-0 renal; 22.7 µM in the test with DU-145 prostate; 16.6 µM with HCT-15 colon; 16.6 µM in the test with MCF7 breast; 19.7 µM in the test with MOLT-4 leukemia; 26.2 µM with NCI/ADR-RES ovarian. The GI50 was 16.4 µM in the test with OVCAR-3 ovarian, 17.5 µM in the test on SF-295 CNS and 23 µM in the test on U251 CNS. Also, the TGI in the test on 786-0 renal is 44.1 µM; with DU-145 prostate, 59.2 µM; in the test with HCT-15 colon, 36.5 µM; in the test with MCF7 breast, 42.4 µM; in the test on MOLT-4 leukemia it was 53.6 µM; in the test with NCI/ADR-RES ovarian, 79.4 µM. Besides, the TGI with OVCAR-3 ovarian is 31.2 µM; in the test on SF-295 CNS it was 40.9 µM; with U251 CNS, 53.4 µM.

With `O=C1CCCCC12CCC/C2=N\O` (configuration not stated), the TGI with 786-0 renal, in the test on A498 renal, in the test with HCT-15 colon, with MOLT-4 leukemia, in the test on OVCAR-3 ovarian and with U251 CNS was greater than 100 µM each time.

In the case of `O=C(NCCCl)SCCO`, the TGI in the test with 786-0 renal, with A498 renal, in the test on HCT-15 colon, in the test on MOLT-4 leukemia, in the test on OVCAR-3 ovarian and with SF-295 CNS was greater than 100 µM each time. The same compound had a TGI with U251 CNS greater than 100 µM.

With `CCCCOC1OC(COC(=O)C(C)C)C(OC(=O)C(C)C)C(O)C1OC1OC(C)C(OC(=O)CCC)C(OC(=O)C(C)C)C1O` (configuration not stated), the GI50 in the test on 786-0 renal was 14 µM; in the test on DU-145 prostate, 16.3 µM; in the test with HCT-15 colon, 14.2 µM; in the test with MCF7 breast it was 8.4 µM; in the test on MOLT-4 leukemia, 1.71 µM; with NCI/ADR-RES ovarian, 3.85 µM. In addition, the results for the GI50 in the test on OVCAR-3 ovarian, in the test with SF-295 CNS and with U251 CNS were 11.9 µM, 14.4 µM and 13.6 µM, respectively. In addition, the TGI came out at 26.9 µM in the test on 786-0 renal; 29.8 µM in the test with DU-145 prostate; 27.3 µM in the test on HCT-15 colon; 61.6 µM in the test on MCF7 breast; 4.12 µM in the test on MOLT-4 leukemia; 11.7 µM with NCI/ADR-RES ovarian. Also, the TGI in the test with OVCAR-3 ovarian is 24.2 µM; in the test on SF-295 CNS, 27.5 µM; in the test on U251 CNS, 26.4 µM.

Turning to `Cc1ccc(NC(=O)CCc2n[nH]c(=S)o2)cc1`, the TGI in the test on 786-0 renal, in the test with A498 renal, with HCT-15 colon, in the test on MOLT-4 leukemia, with OVCAR-3 ovarian and in the test with SF-295 CNS was greater than 100 µM in each case. In the test on U251 CNS, the TGI is greater than 100 µM.

In the case of `Cc1ccc(S(=O)(=O)N/N=C/C(C)C)cc1`, the TGI with 786-0 renal, in the test with A498 renal, in the test with HCT-15 colon, in the test with MOLT-4 leukemia, in the test on OVCAR-3 ovarian and in the test on SF-295 CNS was greater than 100 µM in each case. In the test with U251 CNS, this compound displayed a TGI greater than 100 µM.

For the compound `Cc1nc2ccccc2nc1N=Nc1ccccc1`, the GI50 with 786-0 renal is 26.9 µM; with DU-145 prostate, 36.1 µM; with HCT-15 colon it was 16.3 µM; in the test on MCF7 breast it was 5.75 µM; in the test on MOLT-4 leukemia it was 14.9 µM; in the test on NCI/ADR-RES ovarian it was 16 µM. Also, the figures for the GI50 in the test with OVCAR-3 ovarian, with SF-295 CNS and with U251 CNS were 12.9 µM, 6.38 µM and 35.9 µM, respectively. Further, the TGI in the test on 786-0 renal was greater than 100 µM; in the test on DU-145 prostate, greater than 100 µM; with HCT-15 colon it was greater than 100 µM; with MCF7 breast, greater than 100 µM; with MOLT-4 leukemia, 43.2 µM; in the test on NCI/ADR-RES ovarian, 57.6 µM. Besides, the results for the TGI in the test with OVCAR-3 ovarian, in the test on SF-295 CNS and with U251 CNS were 82.1 µM, greater than 100 µM and greater than 100 µM, respectively.

Values taken from PubChem BioAssay (NCI).
